Measurements: patent US20110294729A1, “Novel Insulin Analogues” (Novo Nordisk A/S, priority 2008, published 2011)

Legend:
[1] = according to WO 90/01038; cited from earlier work
[2] = system: insulin receptor A-isoform and B-isoform; settings: cited from earlier work
[3] = biological target: T1, human IR-B (Homo sapiens, UniProt P06213); experiment: Insulin receptor binding assay (SPA, solubilised receptor), hIR-B
T1 construct: solubilized human IR (holoreceptor) semipurified by wheat germ agglutinin purification; made in house; host or cells: baby hamster kidney (BHK) cells, stably transfected (pZem vector)
T1 sequence (P06213 28-758 limits assumed): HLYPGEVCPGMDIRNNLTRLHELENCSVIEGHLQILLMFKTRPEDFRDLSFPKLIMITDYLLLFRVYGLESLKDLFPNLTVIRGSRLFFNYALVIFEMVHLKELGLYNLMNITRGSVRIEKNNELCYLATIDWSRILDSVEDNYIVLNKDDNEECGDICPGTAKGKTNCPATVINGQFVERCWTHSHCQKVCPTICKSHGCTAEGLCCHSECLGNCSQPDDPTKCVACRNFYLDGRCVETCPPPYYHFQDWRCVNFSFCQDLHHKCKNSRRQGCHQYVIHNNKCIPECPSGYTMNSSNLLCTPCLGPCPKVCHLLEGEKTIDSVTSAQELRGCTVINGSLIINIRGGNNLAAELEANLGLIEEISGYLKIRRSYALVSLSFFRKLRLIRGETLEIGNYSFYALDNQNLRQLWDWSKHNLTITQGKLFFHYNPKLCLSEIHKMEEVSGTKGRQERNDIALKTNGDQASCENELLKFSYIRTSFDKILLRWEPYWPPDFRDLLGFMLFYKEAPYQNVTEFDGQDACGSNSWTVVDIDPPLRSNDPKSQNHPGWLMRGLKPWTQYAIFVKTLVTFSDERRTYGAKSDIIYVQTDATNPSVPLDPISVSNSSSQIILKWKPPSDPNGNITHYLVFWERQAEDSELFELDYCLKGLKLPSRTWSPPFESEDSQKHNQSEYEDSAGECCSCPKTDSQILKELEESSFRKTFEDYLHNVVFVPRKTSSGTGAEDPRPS
T1 sequence (P06213 763-1382 partner limits assumed): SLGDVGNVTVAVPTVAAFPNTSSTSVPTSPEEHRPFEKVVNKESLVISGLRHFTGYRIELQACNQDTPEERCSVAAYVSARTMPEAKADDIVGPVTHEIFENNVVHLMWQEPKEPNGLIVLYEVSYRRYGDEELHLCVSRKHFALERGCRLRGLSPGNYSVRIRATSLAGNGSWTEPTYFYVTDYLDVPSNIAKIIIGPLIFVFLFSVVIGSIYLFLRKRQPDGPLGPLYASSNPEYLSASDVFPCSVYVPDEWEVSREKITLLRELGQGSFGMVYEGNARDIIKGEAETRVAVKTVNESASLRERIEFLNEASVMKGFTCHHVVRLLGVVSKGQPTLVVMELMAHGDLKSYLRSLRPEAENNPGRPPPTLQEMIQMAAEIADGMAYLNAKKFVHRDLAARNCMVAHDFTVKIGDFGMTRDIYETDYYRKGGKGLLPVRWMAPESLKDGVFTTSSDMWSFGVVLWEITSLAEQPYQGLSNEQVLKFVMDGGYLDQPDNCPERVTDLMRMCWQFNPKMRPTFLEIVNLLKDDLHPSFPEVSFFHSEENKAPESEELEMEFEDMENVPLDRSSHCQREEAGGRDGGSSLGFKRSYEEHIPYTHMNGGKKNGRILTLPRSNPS
Protocol: (§1) Competition binding experiments were performed in 96-well plates (polystyrene Optiplate-96, PerkinElmer) on an Eppendorf epMotion 5075 robot using solubilized human IR (holoreceptor) semipurified by wheat germ agglutinin purification from baby hamster kidney (BHK) cells, which were stably transfected with the pZem vector containing the human IR-A or IR-B insert.

[4] = biological target: T2, human IR-A (Homo sapiens, UniProt P06213); experiment: Insulin receptor binding assay (SPA, solubilised receptor), hIR-A; settings: hIR-A affinity relative to human insulin; analogue directly in yeast supernatant; SPA competition with [125I]A14Tyr-labelled insulin
T2 construct: solubilized human IR (holoreceptor) semipurified by wheat germ agglutinin purification; made in house; host or cells: baby hamster kidney (BHK) cells, stably transfected (pZem vector)
T2 sequence (P06213 28-746 isoform P06213-2 limits assumed): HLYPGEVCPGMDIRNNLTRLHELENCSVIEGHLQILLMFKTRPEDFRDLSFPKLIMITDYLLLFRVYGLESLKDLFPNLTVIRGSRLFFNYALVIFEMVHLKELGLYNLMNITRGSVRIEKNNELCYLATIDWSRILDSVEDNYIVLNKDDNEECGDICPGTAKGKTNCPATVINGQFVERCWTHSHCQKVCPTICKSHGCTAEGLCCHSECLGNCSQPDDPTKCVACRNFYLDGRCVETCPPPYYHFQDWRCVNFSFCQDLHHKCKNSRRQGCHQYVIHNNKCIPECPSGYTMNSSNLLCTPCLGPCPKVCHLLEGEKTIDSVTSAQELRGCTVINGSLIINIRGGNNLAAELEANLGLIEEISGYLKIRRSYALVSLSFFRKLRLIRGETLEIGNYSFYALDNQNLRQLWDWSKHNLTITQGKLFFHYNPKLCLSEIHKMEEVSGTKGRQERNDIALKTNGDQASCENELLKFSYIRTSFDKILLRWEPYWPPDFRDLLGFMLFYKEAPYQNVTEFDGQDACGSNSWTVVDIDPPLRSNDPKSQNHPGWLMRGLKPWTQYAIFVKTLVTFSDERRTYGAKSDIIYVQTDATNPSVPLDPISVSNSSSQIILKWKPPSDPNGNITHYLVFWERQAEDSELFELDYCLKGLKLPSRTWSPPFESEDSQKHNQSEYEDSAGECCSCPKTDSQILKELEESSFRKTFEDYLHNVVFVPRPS
T2 sequence (P06213 763-1382 partner limits assumed): as the sequence (P06213 763-1382 partner limits assumed) above
Protocol: as §1

Substance: His^B25 human insulin
- biological activity [1]: high biological activity

Substance: His^B25 human insulin B30 amide
- biological activity [1]: high biological activity

Substance: His^B25, Asp^B28, desB30 human insulin
- biological activity [1]: high biological activity

Substance: Human insulin
- affinity for insulin receptor A-isoform versus B-isoform (in words) ([2]; EMBO Journal 9 (1990), 2409-13): slightly higher affinity for the insulin receptor A-isoform than for the B-isoform

Substance: IGF-II
- affinity for IR-A versus IR-B ([2]; higher affinity for IR-A than for IR-B): 40-50 fold

Substance: [A8H, B25H, B27E, desB30] human insulin [Example 4]
- Ratio B/A ([3]; Example 8 table, ratio of relative hIR-B affinity to relative hIR-A affinity): 2.1
- hIR-B [% of HI] (%) ([3]; hIR-B affinity relative to human insulin, analogue directly in yeast supernatant, SPA competition with [125I]A14Tyr-labelled insulin): 140 ± 5 % of HI
- hIR-A [% of HI] [4]: 67 ± 3 % of HI
